Data taken from the supplement of paper PMC4862054.

system: CAL-51; experiment: normalised response (% of control), CellTox Green; higher = less cell death (100 = DMSO, 0 = benzethonium chloride kill control); details: incubation time: 72 h
Summary of the method: (§1)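 In 384-well plates holding compound at 5 concentrations in 10-fold steps over a 10,000-fold range specific to each compound, breast cancer cell lines were seeded as 20 µl suspension and incubated 72 h. CellTox Green fluorescence was measured at 485/520 nm, after which CellTiter-Glo luminescence was measured following 10 min at room temperature. Plate signals were normalised to 0.1 % DMSO (100) and a positive kill control (0), and each value is the normalised signal at a single concentration.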

SMILES | normalised response
C[C@]12CC[C@@H]3c4ccc(OC(=O)N(CCCl)CCCl)cc4CC[C@H]3[C@@H]1CC[C@@H]2O [Estramustine] (10000 nM) | 74%
C[C@]1(O)C[C@@H](c2nc(-c3ccc4ccc(-c5ccccc5)nc4c3)c3c(N)nccn32)C1 [Linsitinib] (10000 nM) | 95.4%
Cc1ccc([N+](=O)[O-])cc1S(=O)(=O)N(C)/N=C/c1cnc2ccc(Br)cn12 [PIK-75] (10000 nM) | -5.71%
CC(=O)c1c(C)c2cnc(Nc3ccc(N4CCNCC4)cn3)nc2n(C2CCCC2)c1=O [Palbociclib] (10000 nM) | 94.1%

system: MDA-MB-436; experiment: as above; details: incubation time: 72 h
Summary of the method: as §1

SMILES | normalised response
CC1(C)CCC(CN2CCN(c3ccc(C(=O)NS(=O)(=O)c4ccc(NCC5CCOCC5)c([N+](=O)[O-])c4)c(Oc4cnc5[nH]ccc5c4)c3)CC2)=C(c2ccc(Cl)cc2)C1 [ABT-199] (10000 nM) | 95.9%
CC(=O)N(O)CCCCCNC(=O)CCC(=O)N(O)CCCCCNC(=O)CCC(=O)N(O)CCCCCN [Deferoxamine] (10000 nM) | 98.2%
C[C@]12CC[C@@H]3c4ccc(OC(=O)N(CCCl)CCCl)cc4CC[C@H]3[C@@H]1CC[C@@H]2O [Estramustine] (10000 nM) | 99.6%
Cc1ccc([N+](=O)[O-])cc1S(=O)(=O)N(C)/N=C/c1cnc2ccc(Br)cn12 [PIK-75] (10000 nM) | 76%
CC(=O)c1c(C)c2cnc(Nc3ccc(N4CCNCC4)cn3)nc2n(C2CCCC2)c1=O [Palbociclib] (10000 nM) | 68.1%

system: CAL-148; experiment: as above; details: incubation time: 72 h
Summary of the method: as §1

SMILES | normalised response
CC1(C)CCC(CN2CCN(c3ccc(C(=O)NS(=O)(=O)c4ccc(NCC5CCOCC5)c([N+](=O)[O-])c4)c(Oc4cnc5[nH]ccc5c4)c3)CC2)=C(c2ccc(Cl)cc2)C1 [ABT-199] (10000 nM) | 98.2%
CC(=O)N(O)CCCCCNC(=O)CCC(=O)N(O)CCCCCNC(=O)CCC(=O)N(O)CCCCCN [Deferoxamine] (10000 nM) | 37.6%
C[C@]12CC[C@@H]3c4ccc(OC(=O)N(CCCl)CCCl)cc4CC[C@H]3[C@@H]1CC[C@@H]2O [Estramustine] (10000 nM) | 101%
C[C@]1(O)C[C@@H](c2nc(-c3ccc4ccc(-c5ccccc5)nc4c3)c3c(N)nccn32)C1 [Linsitinib] (10000 nM) | 98.4%
Cc1ccc([N+](=O)[O-])cc1S(=O)(=O)N(C)/N=C/c1cnc2ccc(Br)cn12 [PIK-75] (10000 nM) | 65.1%

system: CAL-120; experiment: as above; details: incubation time: 72 h
Summary of the method: as §1

SMILES | normalised response
CC1(C)CCC(CN2CCN(c3ccc(C(=O)NS(=O)(=O)c4ccc(NCC5CCOCC5)c([N+](=O)[O-])c4)c(Oc4cnc5[nH]ccc5c4)c3)CC2)=C(c2ccc(Cl)cc2)C1 [ABT-199] (10000 nM) | 88.4%
CC(=O)N(O)CCCCCNC(=O)CCC(=O)N(O)CCCCCNC(=O)CCC(=O)N(O)CCCCCN [Deferoxamine] (10000 nM) | 103%
C[C@]12CC[C@@H]3c4ccc(OC(=O)N(CCCl)CCCl)cc4CC[C@H]3[C@@H]1CC[C@@H]2O [Estramustine] (10000 nM) | 98.3%
C[C@]1(O)C[C@@H](c2nc(-c3ccc4ccc(-c5ccccc5)nc4c3)c3c(N)nccn32)C1 [Linsitinib] (10000 nM) | 97.5%
Cc1ccc([N+](=O)[O-])cc1S(=O)(=O)N(C)/N=C/c1cnc2ccc(Br)cn12 [PIK-75] (10000 nM) | 81.7%
CC(=O)c1c(C)c2cnc(Nc3ccc(N4CCNCC4)cn3)nc2n(C2CCCC2)c1=O [Palbociclib] (10000 nM) | 102%

system: HCC1937; experiment: as above; details: incubation time: 72 h
Summary of the method: as §1

SMILES | normalised response
CC1(C)CCC(CN2CCN(c3ccc(C(=O)NS(=O)(=O)c4ccc(NCC5CCOCC5)c([N+](=O)[O-])c4)c(Oc4cnc5[nH]ccc5c4)c3)CC2)=C(c2ccc(Cl)cc2)C1 [ABT-199] (10000 nM) | -11.4%
CC(=O)N(O)CCCCCNC(=O)CCC(=O)N(O)CCCCCNC(=O)CCC(=O)N(O)CCCCCN [Deferoxamine] (10000 nM) | 90.9%
C[C@]12CC[C@@H]3c4ccc(OC(=O)N(CCCl)CCCl)cc4CC[C@H]3[C@@H]1CC[C@@H]2O [Estramustine] (10000 nM) | 81.2%
C[C@]1(O)C[C@@H](c2nc(-c3ccc4ccc(-c5ccccc5)nc4c3)c3c(N)nccn32)C1 [Linsitinib] (10000 nM) | 105%
Cc1ccc([N+](=O)[O-])cc1S(=O)(=O)N(C)/N=C/c1cnc2ccc(Br)cn12 [PIK-75] (10000 nM) | 24.7%
CC(=O)c1c(C)c2cnc(Nc3ccc(N4CCNCC4)cn3)nc2n(C2CCCC2)c1=O [Palbociclib] (10000 nM) | 89%

system: HCC1599; experiment: as above; details: incubation time: 72 h
Summary of the method: as §1

SMILES | normalised response
CC1(C)CCC(CN2CCN(c3ccc(C(=O)NS(=O)(=O)c4ccc(NCC5CCOCC5)c([N+](=O)[O-])c4)c(Oc4cnc5[nH]ccc5c4)c3)CC2)=C(c2ccc(Cl)cc2)C1 [ABT-199] (10000 nM) | 105%
CC(=O)N(O)CCCCCNC(=O)CCC(=O)N(O)CCCCCNC(=O)CCC(=O)N(O)CCCCCN [Deferoxamine] (10000 nM) | 92.8%
C[C@]12CC[C@@H]3c4ccc(OC(=O)N(CCCl)CCCl)cc4CC[C@H]3[C@@H]1CC[C@@H]2O [Estramustine] (10000 nM) | 95%
C[C@]1(O)C[C@@H](c2nc(-c3ccc4ccc(-c5ccccc5)nc4c3)c3c(N)nccn32)C1 [Linsitinib] (10000 nM) | 101%
Cc1ccc([N+](=O)[O-])cc1S(=O)(=O)N(C)/N=C/c1cnc2ccc(Br)cn12 [PIK-75] (10000 nM) | 72.6%
CC(=O)c1c(C)c2cnc(Nc3ccc(N4CCNCC4)cn3)nc2n(C2CCCC2)c1=O [Palbociclib] (10000 nM) | 99.4%

system: HCC1143; experiment: as above; details: incubation time: 72 h
Summary of the method: as §1

SMILES | normalised response
CC1(C)CCC(CN2CCN(c3ccc(C(=O)NS(=O)(=O)c4ccc(NCC5CCOCC5)c([N+](=O)[O-])c4)c(Oc4cnc5[nH]ccc5c4)c3)CC2)=C(c2ccc(Cl)cc2)C1 [ABT-199] (10000 nM) | 103%
CC(=O)N(O)CCCCCNC(=O)CCC(=O)N(O)CCCCCNC(=O)CCC(=O)N(O)CCCCCN [Deferoxamine] (10000 nM) | 79.9%
C[C@]12CC[C@@H]3c4ccc(OC(=O)N(CCCl)CCCl)cc4CC[C@H]3[C@@H]1CC[C@@H]2O [Estramustine] (10000 nM) | 110%
C[C@]1(O)C[C@@H](c2nc(-c3ccc4ccc(-c5ccccc5)nc4c3)c3c(N)nccn32)C1 [Linsitinib] (10000 nM) | 119%
Cc1ccc([N+](=O)[O-])cc1S(=O)(=O)N(C)/N=C/c1cnc2ccc(Br)cn12 [PIK-75] (10000 nM) | 54.4%
CC(=O)c1c(C)c2cnc(Nc3ccc(N4CCNCC4)cn3)nc2n(C2CCCC2)c1=O [Palbociclib] (10000 nM) | 101%

system: MDA-MB-453; experiment: as above; details: incubation time: 72 h
Summary of the method: as §1

SMILES | normalised response
CC1(C)CCC(CN2CCN(c3ccc(C(=O)NS(=O)(=O)c4ccc(NCC5CCOCC5)c([N+](=O)[O-])c4)c(Oc4cnc5[nH]ccc5c4)c3)CC2)=C(c2ccc(Cl)cc2)C1 [ABT-199] (10000 nM) | 97.7%
CC(=O)N(O)CCCCCNC(=O)CCC(=O)N(O)CCCCCNC(=O)CCC(=O)N(O)CCCCCN [Deferoxamine] (10000 nM) | 102%
C[C@]12CC[C@@H]3c4ccc(OC(=O)N(CCCl)CCCl)cc4CC[C@H]3[C@@H]1CC[C@@H]2O [Estramustine] (10000 nM) | 96.2%
C[C@]1(O)C[C@@H](c2nc(-c3ccc4ccc(-c5ccccc5)nc4c3)c3c(N)nccn32)C1 [Linsitinib] (10000 nM) | 99.2%
Cc1ccc([N+](=O)[O-])cc1S(=O)(=O)N(C)/N=C/c1cnc2ccc(Br)cn12 [PIK-75] (10000 nM) | 51.3%
CC(=O)c1c(C)c2cnc(Nc3ccc(N4CCNCC4)cn3)nc2n(C2CCCC2)c1=O [Palbociclib] (10000 nM) | 61.4%

system: MCF-10A; experiment: as above; details: incubation time: 72 h
Summary of the method: as §1

SMILES | normalised response
CC1(C)CCC(CN2CCN(c3ccc(C(=O)NS(=O)(=O)c4ccc(NCC5CCOCC5)c([N+](=O)[O-])c4)c(Oc4cnc5[nH]ccc5c4)c3)CC2)=C(c2ccc(Cl)cc2)C1 [ABT-199] (10000 nM) | 108%
CC(=O)N(O)CCCCCNC(=O)CCC(=O)N(O)CCCCCNC(=O)CCC(=O)N(O)CCCCCN [Deferoxamine] (10000 nM) | 105%
C[C@]12CC[C@@H]3c4ccc(OC(=O)N(CCCl)CCCl)cc4CC[C@H]3[C@@H]1CC[C@@H]2O [Estramustine] (10000 nM) | 106%
C[C@]1(O)C[C@@H](c2nc(-c3ccc4ccc(-c5ccccc5)nc4c3)c3c(N)nccn32)C1 [Linsitinib] (10000 nM) | 101%
Cc1ccc([N+](=O)[O-])cc1S(=O)(=O)N(C)/N=C/c1cnc2ccc(Br)cn12 [PIK-75] (10000 nM) | -39.7%
CC(=O)c1c(C)c2cnc(Nc3ccc(N4CCNCC4)cn3)nc2n(C2CCCC2)c1=O [Palbociclib] (10000 nM) | 74.4%

system: MFM-223; experiment: normalised response (% of control), CellTiter-Glo; higher = more viable cells (100 = DMSO, 0 = benzethonium chloride kill control); details: incubation time: 72 h
Procedure: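 DSRT, 72 h incubation, CellTox Green / CellTiter-Glo readout. Signal is normalised to DMSO and benzethonium chloride controls. Value is the normalised response at the highest dose.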

SMILES | normalised response
CC1(C)CCC(CN2CCN(c3ccc(C(=O)NS(=O)(=O)c4ccc(NCC5CCOCC5)c([N+](=O)[O-])c4)c(Oc4cnc5[nH]ccc5c4)c3)CC2)=C(c2ccc(Cl)cc2)C1 [ABT-199] (10000 nM) | 91%
CC(=O)N(O)CCCCCNC(=O)CCC(=O)N(O)CCCCCNC(=O)CCC(=O)N(O)CCCCCN [Deferoxamine] (10000 nM) | 70.9%
C[C@]12CC[C@@H]3c4ccc(OC(=O)N(CCCl)CCCl)cc4CC[C@H]3[C@@H]1CC[C@@H]2O [Estramustine] (10000 nM) | 85.9%
C[C@]1(O)C[C@@H](c2nc(-c3ccc4ccc(-c5ccccc5)nc4c3)c3c(N)nccn32)C1 [Linsitinib] (10000 nM) | 83.1%
Cc1ccc([N+](=O)[O-])cc1S(=O)(=O)N(C)/N=C/c1cnc2ccc(Br)cn12 [PIK-75] (10000 nM) | 3.73%
